One assay concerns the target T1, Human CARM1 (PRMT4) (Homo sapiens, UniProt Q86X55).
T1 construct: Flag-CARM1-His was eluted with 200 ug/ml FLAG peptide in buffer A; made in house; host or cells: HEK 293F cells infected with recombinant baculovirus (pFastBacMam)
T1 sequence (Q86X55 1-585 isoform Q86X55-1): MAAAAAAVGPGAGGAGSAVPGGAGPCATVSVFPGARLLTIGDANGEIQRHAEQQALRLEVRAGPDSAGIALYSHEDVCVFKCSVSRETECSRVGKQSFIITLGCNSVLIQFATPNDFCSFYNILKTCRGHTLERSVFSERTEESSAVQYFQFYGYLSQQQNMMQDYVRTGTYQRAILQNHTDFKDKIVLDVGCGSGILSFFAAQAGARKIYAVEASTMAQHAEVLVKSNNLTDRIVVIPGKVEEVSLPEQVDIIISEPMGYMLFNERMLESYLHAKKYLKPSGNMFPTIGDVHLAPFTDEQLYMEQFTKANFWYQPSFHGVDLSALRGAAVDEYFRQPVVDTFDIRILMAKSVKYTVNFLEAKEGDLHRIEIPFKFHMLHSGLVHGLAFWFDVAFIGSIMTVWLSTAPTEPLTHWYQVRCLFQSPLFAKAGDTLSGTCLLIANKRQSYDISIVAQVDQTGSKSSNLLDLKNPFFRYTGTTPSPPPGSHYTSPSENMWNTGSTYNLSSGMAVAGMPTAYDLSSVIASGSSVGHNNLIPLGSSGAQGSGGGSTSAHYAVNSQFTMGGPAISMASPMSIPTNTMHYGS
Put plainly: CARM1 enzyme assay on peptide substrates (3H-SAM Flashplate). The following applies: Biochemical assay; CARM1 0.25 nM, 3H-SAM 30 nM, peptide 250 nM; read-out: Biochem IC50.

The test system of assay [1] is asymmetric di-methyl PABP1 in RKO cells. Put plainly: RKO methylation assay: In Cell Western (ICW) for asymmetric di-methyl PABP1 (PABP1me2a). As to conditions: Homo sapiens, RKO, 48 h, Cellular-based (PABP1me2a) ICW (In Cell Western) assay. A digest of the protocol:
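In-cell western on compound-exposed RKO cells (48 hours): asymmetric di-methyl PABP1 detected by antibody at 800 nm, DNA content by DRAQ5 at 700 nm. Percent inhibition from signal ratios against DMSO (minimum) and 20 μM reference compound (maximum) wells; IC50 curves fitted from triplicates.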

Structures are written as SMILES.

Broadly, the IC50 is the concentration that inhibits the measured activity by half. With `CNC[C@@H](O)COc1ccc(Cl)c(-c2nc(-c3c(C)noc3C)c(C)c(N3Cc4cnc(N(C)C)cc4C3)n2)c1` [Example 183], the results for the IC50 (on Human CARM1 (PRMT4); in assay [1]) were 1.8 nM and 31 nM, respectively.

Take `CNC[C@@H](O)COc1ccc(Cl)c(-c2nc(-c3c(C)noc3C)c(C)c(N3CC(F)(C(=O)N4CCC4)C3)n2)c1` [Example 184]: the IC50 at Human CARM1 (PRMT4) was determined as 6.1 nM; in assay [1], 488 nM.

For the molecule `CNC[C@@H](O)COc1ccc(Cl)c(-c2nc(-c3c(C)noc3C)c(C)c(N3CC(F)(C(=O)N(C)C)C3)n2)c1` [Example 185], the figures for the IC50 (at Human CARM1 (PRMT4); in assay [1]) were 5.1 nM and 346 nM, respectively.

On to `CNC[C@@H](O)COc1ccc(Cl)c(-c2nc(-c3c(C)noc3C)c(C)c(N3Cc4ccnc(N(C)C)c4C3)n2)c1` [Example 186], for which the IC50 amounted to 1.8 nM at Human CARM1 (PRMT4) and 49 nM in assay [1].

`CNC[C@@H](O)COc1ccc(Cl)c(-c2nc(-c3c(C)noc3C)c(C)c(N3CC(C)(C(=O)N4CCC4)C3)n2)c1` [Example 187]: the results for the IC50 (at Human CARM1 (PRMT4); in assay [1]) were 5.8 nM and 337 nM, respectively.

Consider `CNC[C@@H](O)COc1ccc(Cl)c(-c2nc(-c3c(C)noc3C)c(C)c(N3CC(C)(C(=O)N(C)C)C3)n2)c1` [Example 188], for which the IC50 on Human CARM1 (PRMT4) came to 5.2 nM; in assay [1], 150 nM.

Turning to `CCC1(C(=O)N2CCC2)CN(c2nc(-c3cc(OC[C@H](O)CNC)ccc3Cl)nc(-c3c(C)noc3C)c2C)C1` [Example 189], the IC50 on Human CARM1 (PRMT4) was found to be 5.7 nM; in assay [1], 246 nM.

For `CCC1(C(=O)N(C)C)CN(c2nc(-c3cc(OC[C@H](O)CNC)ccc3Cl)nc(-c3c(C)noc3C)c2C)C1` [Example 190], the values for the IC50 (on Human CARM1 (PRMT4); in assay [1]) were 6.2 nM and 138 nM, respectively.

On to `CNC[C@@H](O)COc1ccc(Cl)c(-c2nc(-c3c(C)noc3C)c(C)c(N3CC4(CCN(C(=O)OCC(F)F)CC4)C3)n2)c1` [Example 191], for which the half-inhibitory concentration (IC50) came to 10.5 nM at Human CARM1 (PRMT4) and 174 nM in assay [1].

Turning to `CNC[C@@H](O)COc1ccc(Cl)c(-c2nc(-c3c(C)c(Cl)nn3C)c(C)c(N3CC4(CCN(C(=O)OC)CC4)C3)n2)c1` [Example 192], the IC50 turned out to be 4.7 nM at Human CARM1 (PRMT4) and 58 nM in assay [1].

Take `CNC[C@@H](O)COc1ccc(Cl)c(-c2nc(-c3c(C)c(Cl)nn3C)c(C)c(N3CC4(CC(OC)C4)C3)n2)c1` [Example 193]: the values for the IC50 (on Human CARM1 (PRMT4); in assay [1]) were 4.1 nM and 52 nM, respectively.

For the molecule `CNC[C@@H](O)COc1ccc(Cl)c(-c2nc(-c3c(C)noc3C)c(C)c(N3Cc4cnc(N5CC[C@H]5C)nc4C3)n2)c1` [Example 194], the IC50 came to 1.8 nM on Human CARM1 (PRMT4) and 13 nM in assay [1].

For `CNC[C@@H](O)COc1ccc(Cl)c(-c2nc(-c3c(C)noc3C)c(C)c(N3Cc4cnc(N5CC[C@@H]5C)nc4C3)n2)c1` [Example 195], the IC50 at Human CARM1 (PRMT4) was 1.8 nM; in assay [1], 13 nM.

For the molecule `CNC[C@@H](O)COc1ccc(Cl)c(-c2nc(-c3c(C)noc3C)c(C)c(N3Cc4ccc(N5CCOCC5)nc4C3)n2)c1` [Example 196], the results for the IC50 (at Human CARM1 (PRMT4); in assay [1]) were 2 nM and 20 nM, respectively.

On to `CNC[C@@H](O)COc1ccc(Cl)c(-c2nc(-c3c(C)noc3C)c(C)c(N3Cc4cnc(NCCO)nc4C3)n2)c1` [Example 197], for which the IC50 on Human CARM1 (PRMT4) stood at 2.6 nM; in assay [1], 381 nM.

As to `CNC[C@@H](O)COc1ccc(Cl)c(-c2nc(-c3c(C)noc3C)c(C)c(N3CC4=C(C3)CN(c3nc(-c5cc(OC[C@H](O)CNC)ccc5Cl)nc(-c5c(C)noc5C)c3C)C4)n2)c1` [Example 198], the IC50 worked out at 0.4 nM on Human CARM1 (PRMT4) and 171 nM in assay [1].

Take `CCOc1ncc2c(n1)CN(c1nc(-c3cc(OC[C@H](O)CNC)ccc3Cl)nc(-c3c(C)noc3CC)c1C)C2` [Example 199]: the IC50 at Human CARM1 (PRMT4) amounted to 5.7 nM; in assay [1], 84 nM.

On to `CNC[C@@H](O)COc1ccc(Cl)c(-c2nc(-c3c(C)noc3C)c(C)c(N3Cc4ccnc(C)c4C3)n2)c1` [Example 200], for which the IC50 on Human CARM1 (PRMT4) was found to be 2.1 nM; in assay [1], 47 nM.

Turning to `CNC[C@@H](O)COc1ccc(Cl)c(-c2nc(-c3c(C)noc3C)c(C)c(N3CCN(CC(F)(F)F)CC3)n2)c1` [Example 201], the figures for the IC50 (at Human CARM1 (PRMT4); in assay [1]) were 4.8 nM and 295 nM, respectively.

For the molecule `CC[C@@H]1CN(c2nc(-c3cc(OC[C@H](O)CNC)ccc3Cl)nc(-c3c(C)noc3C)c2C)CCN1S(C)(=O)=O` [Example 202], the IC50 came to 3.3 nM on Human CARM1 (PRMT4) and 233 nM in assay [1].

Consider `CC[C@@H]1CN(c2nc(-c3cc(OC[C@H](O)CNC)ccc3Cl)nc(-c3c(C)noc3C)c2C)CCN1CC(F)F` [Example 203], for which the IC50 on Human CARM1 (PRMT4) was 4.6 nM; in assay [1] it was 200 nM.

As to `CC[C@H]1CN(c2nc(-c3cc(OC[C@H](O)CNC)ccc3Cl)nc(-c3c(C)noc3C)c2C)CCN1S(C)(=O)=O` [Example 204], the IC50 at Human CARM1 (PRMT4) stood at 4.3 nM; in assay [1], 486 nM.

For the molecule `CC[C@@H]1CN(c2nc(-c3cc(OC[C@H](O)CNC)ccc3Cl)nc(-c3c(C)noc3C)c2C)CCN1C(=O)OC` [Example 205], the figures for the IC50 (at Human CARM1 (PRMT4); in assay [1]) were 3.7 nM and 202 nM, respectively.

Consider `CC[C@H]1CN(c2nc(-c3cc(OC[C@H](O)CNC)ccc3Cl)nc(-c3c(C)noc3C)c2C)CCN1C(=O)OC` [Example 206], for which the IC50 amounted to 5.4 nM at Human CARM1 (PRMT4) and 696 nM in assay [1].

As to `CCc1onc(C)c1-c1nc(-c2cc(OC[C@H](O)CNC)ccc2Cl)nc(N2Cc3cccnc3C2)c1C` [Example 207], the figures for the IC50 (on Human CARM1 (PRMT4); in assay [1]) were 1.5 nM and 74 nM, respectively.

`CNC[C@@H](O)COc1ccc(Cl)c(-c2nc(-c3c(C)noc3C)c(C)c(N3CC4(C3)CC(OC)(C(F)(F)F)C4)n2)c1` [Example 208]: the half-maximal inhibitory concentration (IC50) was determined as 5.2 nM at Human CARM1 (PRMT4) and 142 nM in assay [1].

For `CNC[C@@H](O)COc1ccc(Cl)c(-c2nc(-c3c(C)noc3C)c(C)c(N3Cc4nccc(N(C)C)c4C3)n2)c1` [Example 209], the IC50 on Human CARM1 (PRMT4) is 0.6 nM; in assay [1], 129 nM.

Turning to `CNC[C@@H](O)COc1ccc(Cl)c(-c2nc(-c3c(C)noc3C)c(C)c(N3Cc4nc(C5CC5)oc4C3)n2)c1` [Example 210], the IC50 on Human CARM1 (PRMT4) came out at 2.1 nM; in assay [1] it was 120 nM.

As to `CNC[C@@H](O)COc1ccc(Cl)c(-c2nc(-c3c(C)noc3C)c(C)c(N3CC4=C(C3)CN(C3CC3)C4)n2)c1` [Example 211], the IC50 at Human CARM1 (PRMT4) turned out to be 1.7 nM; in assay [1], 75 nM.

In the case of `CNC[C@@H](O)COc1ccc(Cl)c(-c2nc(-c3c(C)noc3C)c(C)c(N3Cc4ccnc(OC)c4C3)n2)c1` [Example 212], the IC50 is 2.1 nM on Human CARM1 (PRMT4) and 40 nM in assay [1].

Take `CNC[C@@H](O)COc1ccc(Cl)c(-c2nc(-c3c(C)noc3C)c(C)c(N3CC4(C3)CC(O)(C(F)(F)F)C4)n2)c1` [Example 213]: the IC50 is 5.4 nM on Human CARM1 (PRMT4) and 330 nM in assay [1].

Consider `CCN(C)c1nccc2c1CN(c1nc(-c3cc(OC[C@H](O)CNC)ccc3Cl)nc(-c3c(C)noc3C)c1C)C2` [Example 214], for which the IC50 stood at 1.1 nM at Human CARM1 (PRMT4) and 46 nM in assay [1].

Regarding `CNC[C@@H](O)COc1ccc(Cl)c(-c2nc(-c3c(C)c(Br)nn3C)c(C)c(N3CC4(CN(CC(F)(F)F)C4)C3)n2)c1` [Example 215], the IC50 at Human CARM1 (PRMT4) amounted to 4.4 nM; in assay [1] it was 23 nM.

Regarding `CNC[C@@H](O)COc1ccc(Cl)c(-c2nc(-c3c(C)noc3C)c(C)c(N3CCN(C(=O)OC)CC3)n2)c1` [Example 216], the IC50 is 5.4 nM on Human CARM1 (PRMT4) and 415 nM in assay [1].

`CNC[C@@H](O)COc1ccc(Cl)c(-c2nc(-c3c(C)noc3C)c(C)c(N3CC4(C3)CC(OC)(C(F)F)C4)n2)c1` [Example 217]: the IC50 at Human CARM1 (PRMT4) was 4.7 nM; in assay [1] it was 101 nM.

`CNC[C@@H](O)COc1ccc(Cl)c(-c2nc(-c3c(C)noc3C)c(C)c(N3CC4(C3)CC(O)(C(F)F)C4)n2)c1` [Example 218]: the IC50 at Human CARM1 (PRMT4) was found to be 6 nM; in assay [1], 419 nM.

As for `CNC[C@@H](O)COc1ccc(Cl)c(-c2nc(-c3c(C)noc3C)c(C)c(N3CC4(CN(C(=O)OCC(F)(F)F)C4)C3)n2)c1` [Example 219], the values for the IC50 (on Human CARM1 (PRMT4); in assay [1]) were 5.5 nM and 129 nM, respectively.

Turning to `CNC[C@@H](O)COc1ccc(Cl)c(-c2nc(-c3c(C)noc3C)c(C)c(N3CC4(CN(C(=O)OCC(F)F)C4)C3)n2)c1` [Example 220], the IC50 at Human CARM1 (PRMT4) came out at 4.2 nM; in assay [1] it was 221 nM.

As to `CNC[C@@H](O)COc1ccc(Cl)c(-c2nc(-c3c(C)noc3C)c(C)c(N3Cc4ccc(N5CCC5)nc4C3)n2)c1` [Example 221], the results for the IC50 (at Human CARM1 (PRMT4); in assay [1]) were 1.5 nM and 17 nM, respectively.

Turning to `CNC[C@@H](O)COc1ccc(Cl)c(-c2nc(-c3c(C)noc3C)c(C)c(N3CCN(CC(F)F)CC3)n2)c1` [Example 224], the IC50 came to 6.8 nM on Human CARM1 (PRMT4) and 330 nM in assay [1].

For `CC[C@H]1CN(c2nc(-c3cc(OC[C@H](O)CNC)ccc3Cl)nc(-c3c(C)noc3C)c2C)CCN1CC(F)F` [Example 225], the IC50 on Human CARM1 (PRMT4) amounted to 9.3 nM; in assay [1] it was 445 nM.

(Values after patent US20170305922A1, “CARM1 INHIBITORS AND USES THEREOF” (Epizyme, Inc., priority 2014, published 2017).)
